# In patent US20150196490A1 (priority 2011, published 2015):
# System: sweat production
# Conditions: human, in vivo
Compound,greater effectiveness in reducing sweat production than placebo [%],greater reduction in sweat production than the control group [%],reduction in sweat production [mg],subjects with at least a 30% reduction in sweat production compared to Baseline [%]
CCCCCCCCCCCCCC(=O)OC(C)C [Isopropyl Myristate],191,195,103,55
CCCOC(=O)c1ccc(O)cc1 [Propylparaben],245,337,177,70
Polysorbate 80,280,300,159,80
